Experimental data reported in US6989435B2, “Compounds and methods to inhibit or augment an inflammatory response” (Cambridge University Technical Services Ltd., priority 1997, dated 2006).
Marks after values point to notes of the source that are not given here. Positions of bridges follow the written chain, without caps; N, C: chain ends. Non-standard residues stand in square brackets, D forms with d. Residues, ends and D or L forms follow the SMILES beside them. ξ: configuration not given here. ξI = CCC(C)C(N)C(=O)O

How the values were obtained:
[1] = test system: trypsin; assay: Stability against enzymatic destruction; type: in vitro ADME; conditions: 5 units trypsin for 2 hrs at 37° C.
Experimental: (§1) For example, to prepare a peptide 3 derivative, peptide 3(3-12)[MCP-1] was modified according to Jameson et al. (Nature, 368, 744 (1994)), which yielded CRD-Cys13leu4ile11peptide 3[MCP-1] (FIG. 4). CRD-Cys13eu4ile11peptide 3[MCP-1], which had very similar properties to peptide 3(1-12)[MCP-1] […] CRD-Cys13leu4ile11peptide 3[MCP-1] was also resistant to hydrolysis in vivo and allowed therapeutically useful plasma concentrations to be achieved (>10 μM 24 hours after a single intraperitoneal dose of 1 mg of CRD-Cys13leu4ile11peptide 3[MCP-1] in 250 μl saline).

[2] = Stability against acid hydrolysis; type: physicochemical; conditions: pH 2.0 for 2 hrs at 37° C.
Experimental: as §1

[3] = Plasma concentration after a single intraperitoneal dose; type: in vivo; conditions: ip, 24 hours after a single intraperitoneal dose of 1 mg in 250 μl saline
Experimental: as §1

[4] = test system: chemokine receptors on THP-1 cells; assay: Binding to THP-1 cells; set-up: species or system human; conditions: Table 7
Experimental: In general, specific binding is calculated as the amount of labeled agent bound in the absence of cold competitor minus the amount of labeled agent bound in the presence of cold competitor. The amount of specific binding in the presence of varied amounts of cold competitor can be used to determine the association constant for the agent, as well as the number of binding sites on the cell for the agent, using, for example, Scatchard Analysis. The agent may be labeled by radiolabeling (e.g., iodination) or with a suitable biochemical tag (e.g., biotin) or by addition of a photoactivatable crosslinking group. […]
For example, monocytes are suspended in RPMI 1640 medium without bicarbonate containing 0.2% bovine serum albumin and 0.1% azide. […] Filters are washed with 4 ml of cold wash buffer, and the radioactivity bound to the filters is counted in a γ-counter.
For competition studies, the IC50 is calculated with a curve fitting program (GraFit, Erithacus Software, London), using a four-parameter logistic, cpmbound=cpmmax/(1+([L]/IC50)^S)+cpmns, where cpmmax represents the binding without competitor, [L] is the competitor concentration, cpmns is the non-specific binding, and s is the slope factor. […]

stability against enzymatic destruction [1]	degradation by acid hydrolysis [2]	level at time molar at 24 h [3]	Compound	AVERAGE ED50 (peptide 2 family: estimated ka for binding to THP-1 cells) [4]
stable	< 10%	> 10 µM	CCC(C)C1NC(=O)[C@@H](CCC(N)=O)NC(=O)[C@H](N)CSSC[C@H](C(=O)O)NC(=O)[C@@H](CC(C)C)NC(=O)[C@@H](CC(=O)O)NC(=O)[C@H]2CCCN2C(=O)[C@@H](CCCCN)NC(=O)[C@@H](CCC(N)=O)NC(=O)[C@@H](CCCCN)NC(=O)[C@@H](Cc2c[nH]c3ccccc23)NC1=O (stereo partly drawn) [CRD-Cys13Leu4ile11peptide 3] (H-[dC][dQ][ξI][dW][dK][dQ][dK][dP][dD][dL][dC]-OH; disulfide 1-11; N-terminus and C-terminus assumed)	–
–	–	–	ELRVIESGPHCANTEI [Pep2[IL8]]	1-10^c μM
–	–	–	HLKILNTPNCALQIV [Pep2[SDF1]]	1-10^c μM
